These results are taken from ChEMBL document CHEMBL1157966, “Synthesis of salvinorin A analogues as opioid receptor probes” (J Nat Prod, 2006).

A short description of experiment [1]: Selectivity ratio of Ki for mu opioid receptor to kappa opioid receptor.
Experiment [2] concerns the target Delta-type opioid receptor (Homo sapiens, UniProt P41143). The experiment in a line: Displacement of [125]OXY from delta opioid receptor.
The next experiment addresses Mu-type opioid receptor (Homo sapiens, UniProt P35372). The experiment in a line: Displacement of [125]OXY from mu opioid receptor.
Experiment [3] has as its target Kappa-type opioid receptor (Homo sapiens, UniProt P41145). The experiment in a line: Displacement of [125]OXY from kappa opioid receptor.
Experiment [4] can be described thus: Selectivity ratio of Ki for delta opioid receptor to kappa opioid receptor.

For orientation: Ki means a dissociation constant, usually derived from enzyme kinetics or from competition with a known ligand.

Chain of Kappa-type opioid receptor (P41145 whole entry): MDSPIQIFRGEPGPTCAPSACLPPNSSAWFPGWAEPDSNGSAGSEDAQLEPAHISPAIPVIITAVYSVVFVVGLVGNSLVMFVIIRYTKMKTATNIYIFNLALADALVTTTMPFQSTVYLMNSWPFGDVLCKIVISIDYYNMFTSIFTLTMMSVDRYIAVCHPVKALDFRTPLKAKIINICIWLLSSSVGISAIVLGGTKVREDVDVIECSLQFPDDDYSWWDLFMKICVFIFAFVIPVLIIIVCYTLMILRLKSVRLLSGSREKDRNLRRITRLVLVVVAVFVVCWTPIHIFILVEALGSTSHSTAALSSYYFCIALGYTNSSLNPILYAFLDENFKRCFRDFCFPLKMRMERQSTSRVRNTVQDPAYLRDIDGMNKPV
Chain of Mu-type opioid receptor (P35372 whole entry): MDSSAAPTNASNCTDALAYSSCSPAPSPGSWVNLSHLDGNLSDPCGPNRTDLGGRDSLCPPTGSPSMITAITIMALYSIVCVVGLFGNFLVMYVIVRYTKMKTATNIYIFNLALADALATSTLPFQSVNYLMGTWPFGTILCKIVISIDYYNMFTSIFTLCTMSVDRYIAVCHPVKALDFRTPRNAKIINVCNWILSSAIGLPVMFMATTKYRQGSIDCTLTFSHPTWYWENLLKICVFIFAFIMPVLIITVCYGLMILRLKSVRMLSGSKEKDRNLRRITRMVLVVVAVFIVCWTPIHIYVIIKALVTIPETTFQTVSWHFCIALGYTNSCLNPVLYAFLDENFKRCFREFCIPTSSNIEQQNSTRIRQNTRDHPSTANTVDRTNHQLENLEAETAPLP
Chain of Delta-type opioid receptor (P41143 whole entry): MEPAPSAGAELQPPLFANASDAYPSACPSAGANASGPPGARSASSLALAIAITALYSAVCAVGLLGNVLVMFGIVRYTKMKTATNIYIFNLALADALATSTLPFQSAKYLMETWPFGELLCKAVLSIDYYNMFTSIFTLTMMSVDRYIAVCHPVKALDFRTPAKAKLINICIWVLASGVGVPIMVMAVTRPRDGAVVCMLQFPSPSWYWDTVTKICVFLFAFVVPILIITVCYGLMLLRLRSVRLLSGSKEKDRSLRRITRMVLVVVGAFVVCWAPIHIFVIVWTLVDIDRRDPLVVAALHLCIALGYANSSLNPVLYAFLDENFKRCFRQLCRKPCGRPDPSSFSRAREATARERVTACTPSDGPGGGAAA

As for `COC(=O)[C@@H]1C[C@H](OC(=O)CCc2ccccc2)C(=O)[C@H]2[C@@]1(C)CC[C@H]1C(=O)O[C@H](c3ccoc3)C[C@]21C`, the results for the Ratio Ki in experiment [1] and in experiment [4] were 2 and 52, respectively. Also, the inhibition constant Ki in experiment [2] amounted to 9330 nM; on Mu-type opioid receptor, 280 nM; in experiment [3], 180 nM.

As for `COC(=O)[C@@H]1C[C@H](OC(=O)c2ccccc2)C(=O)[C@H]2[C@@]1(C)CC[C@H]1C(=O)O[C@H](c3ccoc3)C[C@]21C`, the Ratio Ki in experiment [1] was 0.13; in experiment [4], 12.

Turning to `COC(=O)[C@@H]1C[C@H](OS(=O)(=O)c2ccc(C)cc2)C(=O)[C@H]2[C@@]1(C)CCC1C(=O)O[C@H](c3ccoc3)C[C@@]12C` (single isomer, unassigned), the Ratio Ki stood at 4 in experiment [1] and 74 in experiment [4]. Also, the inhibitory constant (Ki) in experiment [2] amounted to 3720 nM; on Mu-type opioid receptor, 220 nM; in experiment [3], 50 nM.

Take `COC(=O)[C@@H]1C[C@H](OC(=O)c2cccs2)C(=O)[C@H]2[C@@]1(C)CC[C@H]1C(=O)O[C@H](c3ccoc3)C[C@]21C`: the figures for the Ratio Ki in experiment [1] and in experiment [4] were 0.04 and 5, respectively. The results for the Ki (in experiment [2]; at Mu-type opioid receptor; in experiment [3]) were 1380 nM, 10 nM and 260 nM, respectively.

`CCCCC(=O)O[C@H]1C[C@@H](C(=O)OC)[C@]2(C)CCC3C(=O)O[C@H](c4ccoc4)C[C@]3(C)[C@H]2C1=O` (single isomer, unassigned): the results for the Ratio Ki in experiment [1] and in experiment [4] were 21 and 265, respectively. Also, the Ki in experiment [2] worked out at 3970 nM; on Mu-type opioid receptor, 310 nM; in experiment [3] it was 15 nM.

For `CCCC(=O)O[C@H]1C[C@@H](C(=O)OC)[C@]2(C)CCC3C(=O)O[C@H](c4ccoc4)C[C@]3(C)[C@H]2C1=O` (single isomer, unassigned), the Ratio Ki in experiment [1] was 130; in experiment [4], 1010. Further, the Ki in experiment [2] worked out at 4030 nM; at Mu-type opioid receptor, 520 nM; in experiment [3] it was 4 nM.

In the case of `COC(=O)[C@@H]1C[C@H](OC(=O)c2ccc(Br)cc2)C(=O)[C@H]2[C@@]1(C)CCC1C(=O)O[C@H](c3ccoc3)C[C@@]12C` (single isomer, unassigned), the Ratio Ki in experiment [1] turned out to be 0.01; in experiment [4], 2. In addition, the figures for the Ki (in experiment [2]; at Mu-type opioid receptor; in experiment [3]) were 1410 nM, 10 nM and 740 nM, respectively.

Regarding `COC(=O)[C@@H]1C[C@H](OC(=O)Cc2ccccc2)C(=O)[C@H]2[C@@]1(C)CCC1C(=O)O[C@H](c3ccoc3)C[C@@]12C` (single isomer, unassigned), the Ratio Ki in experiment [1] is 4; in experiment [4], > 30. Also, the Ki in experiment [2] was > 10000 nM; at Mu-type opioid receptor it was 1090 nM; in experiment [3], 290 nM.

`CCC(=O)O[C@H]1C[C@@H](C(=O)OC)[C@]2(C)CC[C@H]3C(=O)O[C@H](c4ccoc4)C[C@]3(C)[C@H]2C1=O`: the figures for the Ratio Ki in experiment [1] and in experiment [4] were > 560 and 2730, respectively.

As for `CCCCCC(=O)O[C@H]1C[C@@H](C(=O)OC)[C@]2(C)CCC3C(=O)O[C@H](c4ccoc4)C[C@]3(C)[C@H]2C1=O` (single isomer, unassigned), the values for the Ratio Ki in experiment [1] and in experiment [4] were 7 and 61, respectively. The results for the Ki (in experiment [2]; at Mu-type opioid receptor; in experiment [3]) were 4240 nM, 520 nM and 70 nM, respectively.

Consider `COC(=O)[C@@H]1C[C@H](OC(=O)CNC(=O)OC(C)(C)C)C(=O)[C@H]2[C@@]1(C)CCC1C(=O)O[C@H](c3ccoc3)C[C@@]12C` (single isomer, unassigned), for which the figures for the Ratio Ki in experiment [1] and in experiment [4] were 63 and > 100, respectively. The Ki in experiment [2] was > 10000 nM; on Mu-type opioid receptor, 5660 nM; in experiment [3], 90 nM.

`COC(=O)[C@@H]1C[C@H](OS(=O)(=O)c2ccccc2)C(=O)[C@H]2[C@@]1(C)CCC1C(=O)O[C@H](c3ccoc3)C[C@@]12C` (single isomer, unassigned): the Ratio Ki in experiment [1] and in experiment [4] was > 150 throughout. Besides, the Ki in experiment [2] was > 10000 nM; at Mu-type opioid receptor, > 10000 nM; in experiment [3], 60 nM.

As to `COC(=O)[C@@H]1C[C@H](OC(=O)c2cccc(Br)c2)C(=O)[C@H]2[C@@]1(C)CCC1C(=O)O[C@H](c3ccoc3)C[C@@]12C` (single isomer, unassigned), the Ratio Ki in experiment [1] is 1.6; in experiment [4], > 100. The Ki in experiment [2] was > 10000 nM; at Mu-type opioid receptor, 110 nM; in experiment [3] it was 70 nM.

In the case of `COC(=O)[C@@H]1C[C@H](OC(=O)c2ccccc2Br)C(=O)[C@H]2[C@@]1(C)CCC1C(=O)O[C@H](c3ccoc3)C[C@@]12C` (single isomer, unassigned), the Ratio Ki in experiment [1] was 1.2; in experiment [4], > 100. Further, the Ki in experiment [2] is > 10000 nM; at Mu-type opioid receptor, 110 nM; in experiment [3], 90 nM.
